Results on 19 compounds are retold here after patent publication US8889704B2 (Array BioPharma Inc., priority 2011, dated 2014).

What all share (assay type): biochemical
Assay [1] has as its target PIM-1 (Homo sapiens, UniProt P11309). The experiment in a line: Enzyme PIM-1 Assay ([33P]ATP incorporation into PIM2tide, filter plate). The settings on record: averaged IC50; 35 μM ATP, 7.5 μM PIM2tide, 0.25 nM PIM-1, 60 min at 22° C. Summed up: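 Ten-point, 3-fold dilution series (10 μM top, 2% DMSO final) tested for inhibition of 33P transfer from 35 μM ATP to 7.5 μM PIM2tide by 0.25 nM PIM-1. Reaction 60 min, 22 °C, pH 7.4 MOPS/MgCl2 buffer; phosphocellulose capture, scintillation counting, IC50 where fitted POC equals 50.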

The target of assay [2] is T1, GST-tagged recombinant full-length human Pim-2 (Homo sapiens, UniProt Q9P1W9).
T1 construct: GST-tagged recombinant full-length human Pim-2; GST
T1 sequence (Q9P1W9 whole entry): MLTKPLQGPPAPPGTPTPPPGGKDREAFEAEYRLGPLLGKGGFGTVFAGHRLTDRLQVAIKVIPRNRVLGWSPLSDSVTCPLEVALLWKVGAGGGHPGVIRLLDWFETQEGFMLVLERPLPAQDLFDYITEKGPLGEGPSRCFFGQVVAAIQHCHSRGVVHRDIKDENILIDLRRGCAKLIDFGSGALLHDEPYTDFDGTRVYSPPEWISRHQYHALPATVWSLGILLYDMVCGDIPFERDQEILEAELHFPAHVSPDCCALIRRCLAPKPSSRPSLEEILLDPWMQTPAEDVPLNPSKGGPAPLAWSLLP
Briefly: PIM-2 Assay (as Example A). The settings on record: averaged IC50; 4 μM ATP, 1.0 μM PIM2tide, 1.5 nM Pim-2. In a few lines:
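IC50 was derived by 4-parameter logistic fitting of percent-of-control data over a 10-point, 3-fold series (highest 10 μM, 2% DMSO). Reactions held 1.5 nM GST-Pim-2 (full-length, human), 4 μM [γ-33P]ATP and 1.0 μM PIM2tide for 60 min at 22 °C, pH 7.4; 33P-peptide captured on P81 filters.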

Assay [3] concerns the target recombinant rat PIM-3 (Rattus norvegicus, UniProt O70444). The experiment in a line: PIM-3 Assay (as Example A). The settings on record: averaged IC50; 30 μM ATP, 3.75 μM PIM2tide, 0.5 nM PIM-3. In a few lines: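 33P incorporation from 30 μM [γ-33P]ATP into 3.75 μM PIM2tide by 0.5 nM rat PIM-3, 60 min at 22 °C in pH 7.4 MOPS buffer, read by P81 filter capture and scintillation counting. Compounds tested in 3-fold dilutions up to 10 μM final, 2% DMSO; percent-of-control data fitted by 4-parameter logistic for IC50.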

Molecules are shown by their SMILES. Counter-ions that a name gives are not always drawn.

PIM-1, sequence (P11309 whole entry, species assumed): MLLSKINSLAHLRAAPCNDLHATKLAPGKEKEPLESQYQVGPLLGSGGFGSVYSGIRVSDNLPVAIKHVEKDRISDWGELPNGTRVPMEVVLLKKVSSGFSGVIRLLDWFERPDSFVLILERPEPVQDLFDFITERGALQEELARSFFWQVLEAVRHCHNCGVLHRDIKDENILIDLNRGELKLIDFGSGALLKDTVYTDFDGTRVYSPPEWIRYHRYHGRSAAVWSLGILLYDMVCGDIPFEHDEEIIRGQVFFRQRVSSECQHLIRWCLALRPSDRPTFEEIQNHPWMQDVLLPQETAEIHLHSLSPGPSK

`CO[C@@H](C)COc1ccc2ccc(-c3nnc4ccc([C@@H](N5CC[C@H](N)C5)C(F)(F)F)cn34)nc2c1` [Example 287, (S)-1-((R)-2,2,2-trifluoro-1-(3-(7-((S)-2-methoxypropoxy)quinolin-2-yl)-[1,2,4]triazolo[4,3-a]pyridin-6-yl)ethyl)pyrrolidin-3-amine dihydrochloride]: the values for the IC50 in assay [1], in assay [2] and in assay [3] were 0.32 nM, 178 nM and 0.7 nM, respectively.

In the case of `CCC(CC)C(=O)OCCOc1cc2nc(-c3nnc4ccc([C@@H](N5CC[C@H](N)C5)C(F)(F)F)cn34)ccc2cc1F` [Example 288, 2-(2-(6-((R)-1-((S)-3-aminopyrrolidin-1-yl)-2,2,2-trifluoroethyl)-[1,2,4]triazolo[4,3-a]pyridin-3-yl)-6-fluoroquinolin-7-yloxy)ethyl 2-ethylbutanoate], the IC50 – broadly, the midpoint of a concentration-inhibition curve – is 9.42 nM in assay [1], above 1000 nM in assay [2] and 56 nM in assay [3].

Regarding `CCC(C)(C)C(=O)OCCOc1cc2nc(-c3nnc4ccc([C@@H](N5CC[C@H](N)C5)C(F)(F)F)cn34)ccc2cc1F` [Example 289, 2-(2-(6-((R)-1-((S)-3-aminopyrrolidin-1-yl)-2,2,2-trifluoroethyl)-[1,2,4]triazolo[4,3-a]pyridin-3-yl)-6-fluoroquinolin-7-yloxy)ethyl 2,2-dimethylbutanoate], the IC50 was 0.38 nM in assay [1], 459 nM in assay [2] and 1.6 nM in assay [3].

As for `CC(C)[C@H](N)C(=O)OCCOc1cc2nc(-c3nnc4ccc([C@@H](N5CC[C@H](N)C5)C(F)(F)F)cn34)ccc2cc1F` [Example 290, (S)-2-(2-(6-((R)-1-((S)-3-aminopyrrolidin-1-yl)-2,2,2-trifluoroethyl)-[1,2,4]triazolo[4,3-a]pyridin-3-yl)-6-fluoroquinolin-7-yloxy)ethyl 2-amino-3-methylbutanoate], the IC50 is 29.7 nM in assay [1], above 1000 nM in assay [2] and above 100 nM in assay [3].

Consider `CO[C@H](C)COc1cc(-c2nnc3ccc([C@@H](N4CC[C@H](N)C4)C(F)(F)F)cn23)nc2ccccc12` [Example 291, (S)-1-((R)-2,2,2-trifluoro-1-(3-(4-((R)-2-methoxypropoxy)quinolin-2-yl)-[1,2,4]triazolo[4,3-a]pyridin-6-yl)ethyl)pyrrolidin-3-amine formate], for which the IC50 in assay [1] was 0.19 nM; in assay [2] it was 82 nM; in assay [3] it was 0.5 nM.

For `CCOc1cc2nc(-c3nnc4ccc([C@H](N5CC[C@@H](N)C5)C(F)(F)F)cn34)ccc2cc1F` [Example 292, (R)-1-((S)-1-(3-(7-ethoxy-6-fluoroquinolin-2-yl)-[1,2,4]triazolo[4,3-a]pyridin-6-yl)-2,2,2-trifluoroethyl)pyrrolidin-3-amine hydrochloride], the results for the IC50 in assay [1], in assay [2] and in assay [3] were 0.65 nM, 68 nM and 1.1 nM, respectively.

For `CCOc1cc2nc(-c3nnc4ccc([C@@H](N5CC[C@@](C)(N)C5)C(F)(F)F)cn34)ccc2cc1F` [Example 293, (R)-1-((R)-1-(3-(7-ethoxy-6-fluoroquinolin-2-yl)-[1,2,4]triazolo[4,3-a]pyridin-6-yl)-2,2,2-trifluoroethyl)-3-methylpyrrolidin-3-amine hydrochloride], the IC50 was 0.4 nM in assay [1], 468 nM in assay [2] and 1.1 nM in assay [3].

Take `CCOc1cc2nc(-c3nnc4ccc([C@H](N5CC[C@@](C)(N)C5)C(F)(F)F)cn34)ccc2cc1F` [Example 294, (R)-1-((S)-1-(3-(7-ethoxy-6-fluoroquinolin-2-yl)-[1,2,4]triazolo[4,3-a]pyridin-6-yl)-2,2,2-trifluoroethyl)-3-methylpyrrolidin-3-amine hydrochloride]: the IC50 stood at 0.53 nM in assay [1], 94 nM in assay [2] and 0.7 nM in assay [3].

Regarding `CCOc1cc2nc(-c3nnc4ccc([C@H](N5CC[C@@H](CN)C5)C(F)(F)F)cn34)ccc2cc1F` [Example 295, ((S)-1-((S)-1-(3-(7-ethoxy-6-fluoroquinolin-2-yl)-[1,2,4]triazolo[4,3-a]pyridin-6-yl)-2,2,2-trifluoroethyl)pyrrolidin-3-yl)methanamine hydrochloride], the results for the IC50 in assay [1], in assay [2] and in assay [3] were 2.55 nM, 522 nM and 12 nM, respectively.

With `CCOc1cc2nc(-c3nnc4ccc([C@H](N5CC[C@H](CN)C5)C(F)(F)F)cn34)ccc2cc1F` [Example 296, ((R)-1-((S)-1-(3-(7-ethoxy-6-fluoroquinolin-2-yl)-[1,2,4]triazolo[4,3-a]pyridin-6-yl)-2,2,2-trifluoroethyl)pyrrolidin-3-yl)methanamine hydrochloride], the IC50 in assay [1] is 1.51 nM; in assay [2], above 1000 nM; in assay [3] it was 12 nM.

With `CC(C)(O)COc1ccc2ccc(-c3nnc4ccc([C@H](N5CC[C@](C)(N)C5)C(F)(F)F)cn34)nc2c1` [Example 297, 1-(2-(6-((S)-1-((S)-3-amino-3-methylpyrrolidin-1-yl)-2,2,2-trifluoroethyl)-[1,2,4]triazolo[4,3-a]pyridin-3-yl)quinolin-7-yloxy)-2-methylpropan-2-ol dihydrochloride], the IC50 in assay [1] stood at 0.18 nM; in assay [2] it was 20 nM; in assay [3] it was 0.2 nM.

For the compound `COCCOc1cc2nc(-c3nnc4ccc([C@H](N5CC[C@](C)(N)C5)C(F)(F)F)cn34)ccc2cc1F` [Example 298, (S)-3-methyl-1-((S)-2,2,2-trifluoro-1-(3-(6-fluoro-7-(2-methoxyethoxy)quinolin-2-yl)-[1,2,4]triazolo[4,3-a]pyridin-6-yl)ethyl)pyrrolidin-3-amine dihydrochloride], the results for the IC50 in assay [1], in assay [2] and in assay [3] were 0.27 nM, 59 nM and 0.4 nM, respectively.

Regarding `CCOc1cc2nc(-c3nnc4ccc([C@@H](N5C[C@@H](N)[C@H](OC)C5)C(F)(F)F)cn34)ccc2cc1F` [Example 299, (3R,4R)-1-((R)-1-(3-(7-ethoxy-6-fluoroquinolin-2-yl)-[1,2,4]triazolo[4,3-a]pyridin-6-yl)-2,2,2-trifluoroethyl)-4-methoxypyrrolidin-3-amine dihydrochloride], the figures for the IC50 in assay [1], in assay [2] and in assay [3] were 0.55 nM, 695 nM and 1.6 nM, respectively.

Turning to `COCCc1ccc2ccc(-c3nnc4ccc([C@H](N5CC[C@](C)(N)C5)C(F)(F)F)cn34)nc2c1` [Example 300, (S)-3-methyl-1-((S)-2,2,2-trifluoro-1-(3-(7-(2-methoxyethyl)quinolin-2-yl)-[1,2,4]triazolo[4,3-a]pyridin-6-yl)ethyl)pyrrolidin-3-amine dihydrochloride], the IC50 is 0.36 nM in assay [1], 64 nM in assay [2] and 0.4 nM in assay [3].

In the case of `CC(C)(O)COc1cc2nc(-c3nnc4ccc([C@H](N5CC[C@](C)(N)C5)C(F)(F)F)cn34)ccc2cc1F` [Example 301, 1-(2-(6-((S)-1-((S)-3-amino-3-methylpyrrolidin-1-yl)-2,2,2-trifluoroethyl)-[1,2,4]triazolo[4,3-a]pyridin-3-yl)-6-fluoroquinolin-7-yloxy)-2-methylpropan-2-ol dihydrochloride], the IC50 was determined as 0.2 nM in assay [1], 14 nM in assay [2] and 0.2 nM in assay [3].

`CC(C)(O)COc1cc2nc(-c3nnc4ccc([C@@H](N5CC[C@H](N)C5)C(F)(F)F)cn34)ccc2cc1F` [Example 302, 1-(2-(6-((R)-1-((S)-3-aminopyrrolidin-1-yl)-2,2,2-trifluoroethyl)-[1,2,4]triazolo[4,3-a]pyridin-3-yl)-6-fluoroquinolin-7-yloxy)-2-methylpropan-2-ol dihydrochloride]: the IC50 turned out to be 0.22 nM in assay [1], 69 nM in assay [2] and 0.3 nM in assay [3].

Regarding `COC[C@@H](C)Oc1cccc2ccc(-c3nnc4ccc([C@@H](N5CC[C@H](N(C)C)C5)C(F)(F)F)cn34)nc12` [Example 303, (S)—N,N-dimethyl-1-((R)-2,2,2-trifluoro-1-(3-(8-((R)-1-methoxypropan-2-yloxy)quinolin-2-yl)-[1,2,4]triazolo[4,3-a]pyridin-6-yl)ethyl)pyrrolidin-3-amine dihydrochloride], the IC50 in assay [1] came to 1.33 nM; in assay [2], 242 nM; in assay [3], 5.85 nM.

As to `CO[C@@H](C)COc1ccc2ccc(-c3nnc4ccc([C@H](N5CC[C@](C)(N)C5)C(F)(F)F)cn34)nc2c1` [Example 304, (S)-3-methyl-1-((S)-2,2,2-trifluoro-1-(3-(7-((S)-2-methoxypropoxy)quinolin-2-yl)-[1,2,4]triazolo[4,3-a]pyridin-6-yl)ethyl)pyrrolidin-3-amine], the IC50 is 0.26 nM in assay [1], 65.1 nM in assay [2] and 0.3 nM in assay [3].

Consider `CO[C@H](C)COc1ccc2ccc(-c3nnc4ccc([C@H](N5CC[C@](C)(N)C5)C(F)(F)F)cn34)nc2c1` [Example 305, (S)-3-methyl-1-((S)-2,2,2-trifluoro-1-(3-(7-((R)-2-methoxypropoxy)quinolin-2-yl)-[1,2,4]triazolo[4,3-a]pyridin-6-yl)ethyl)pyrrolidin-3-amine], for which the figures for the half-maximal inhibitory concentration (IC50) in assay [1], in assay [2] and in assay [3] were 0.96 nM, 71 nM and 0.4 nM, respectively.
